Measured values from US20240255529A1, “NOVEL ASSAY AND NOVEL METHODS OF TREATING AGING-RELATED CONDITIONS” (The Progeria Research Foundation, priority 2021, published 2024).

Tests used:
plasma progerin = experiment: Plasma progerin (SMC progerin immunoassay) in HGPS clinical trial patients on therapy; assay type: in vivo, human
Excerpt: An SMC ultrasensitive immunoassay for the detection of plasma progerin was developed. Overall, the assay employed a sandwich immunoassay format with an anti-lamin A capture antibody coated on magnetic microparticles, and an anti-progerin specific detection antibody conjugated to a fluorescent tag (FIG. 1) run in a 96-well plate. Progerin-bound detection antibody was eluted and read as single molecules using a confocal laser.
The SMC assay for measuring Progerin was as previously described (Todd et al.), except that magnetic microparticles (MP) coated with capture antibodies and detection reagents were specific to the progerin assay (FIG. 1). Briefly, the progerin capture antibody (mouse Mab anti-Lamin A+C, clone: 131C3 Abcam, epitope between amino acid residues 319-566, common to Lamins A, C and progerin) was coated onto MP at 25 μg antibody/mg MP. Samples were exposed to the MP-capture antibody, to specifically bind analyte, followed by one plate wash to remove unbound material. Next, fluorescently labeled progerin-specific detection antibody (Mouse Mab, clone: 13A4, from Millipore, epitope between amino acids 604 and 611 of progerin, which cross the deletion region of lamin A), pre-diluted to 2,000 ng/mL in assay buffer and then filtered through a 0.2 μm filter (MilliporeSigma), was added to wells. Plates were then washed 4 times to remove any unbound detection antibody. All MPs were then transferred from the initial 96-well assay plate to a new plate to avoid eluting any non-specific plate-bound detection antibody. Progerin-bound detection antibody was then eluted by pH shift using a proprietary glycine buffer, transferred to a new plate and detected by SMC using the Erenna Immunoassay System software (SgxLink™). The raw signal data and the interpolated value data obtained from SgxLink were transferred to Excel where precision was then calculated for the replicate wells. The acceptance specification for raw signal and interpolated values was precision and recovery bias≤20%.
A 12-point standard curve of recombinant progerin (Abcam 93918) diluted in EMD standard diluent, a synthetic serum-based solution containing a proprietary mixture of Tris buffer and carrier protein (emdmillipore.com), was run on each plate in triplicate. The standard curve was used to determine progerin concentration in unknown samples. Samples were diluted in standard diluent so that anticipated progerin fell within the dynamic range of the standard curve. All reported progerin and SD are dilution-corrected. All samples were tested in duplicate, unless triplicate is specified.
Human clinical data was obtained from The PRF International Progeria Registry, Diagnostics Program, and Medical and Research Database (available online at progeriaresearch.org). HGPS plasma and serum were obtained from The PRF Cell and Tissue Bank (available online at progeriaresearch.org). Clinical trial samples were donated to the Bank from Boston Children's Hospital (BCH) with informed consent or approval from the BCH Committee on Clinical Investigation. Trial samples were collected in a fasting state, in the morning just prior to treatment dosing as trough samples, except pK samples which were collected at trough and then at specified times post-trough. Non-trial samples were not regulated as to time of day collected. Some nonHGPS healthy human plasma samples were obtained from ProMedDx. HGPS and nonHGPS plasma sample IDs were assigned HGPI and NPI prefixes, respectively.
For analysis, samples were fully thawed at RT for <5 min, lightly mixed, diluted in standard diluent before transferring into filter plate wells (MilliporeSigma MSBVN1210). Patient plasma volumes required for analysis were 200 or 100 μl (nonHGPS 1:1 and 1:2) and 8 μl (HGPS 1:25) to generate duplicates. Filter plates with sample were centrifuged for 10 minutes to pull sample through the filters. Filtrate was then assessed as described. […]

patients with HGPS = experiment: Life expectancy versus progerin decrease and time on lonafarnib therapy (dynamic model based on cRMST); assay type: in vivo, human
Excerpt: To quantify increase in life expectancy as it related to decrease in progerin and duration of time on lonafarnib therapy, the methodology by Yang et al. (2021), which proposes a dynamic model that utilizes a series of landmark time points (Dafni, 2011) based on the conditional restricted mean survival time (cRMST), was utilized. This analysis also adjusted for sex and age at baseline.
Next, the relationship between lonafarnib treatment duration and change in life expectancy with extent of change in plasma progerin was assessed (FIG. 7, Table 7). This analysis included samples from patients with a baseline pre-therapy and at least one on-treatment progerin measurement (N=65 patients). […] Three representative wide-ranging examples of on-therapy progerin decreases (1,000, 10,000 and 15,000 pg/mL) spanning 10 years on treatment are graphed in FIG. 7. Patient lifespan increased in all 3 examples.

[1] = children with HGPS treated with lonafarnib during a clinical trial; cited from earlier work
children with HGPS = children with HGPS treated with lonafarnib; cited from earlier work

Structure (SMILES): NC(=O)N1CCC(CC(=O)N2CCC([C@H]3c4ncc(Br)cc4CCc4cc(Cl)cc(Br)c43)CC2)CC1 [lonafarnib]
- average progerin, consecutive Triple Therapy vs on-treatment lonafarnib monotherapy extension visits (plasma progerin; 10 patients, extension 4.1±0.5 years, p=0.99): no significant differences
- average decreases in progerin from baseline (plasma progerin; ProLon1, 5 remaining visits, lonafarnib 150 mg/m^2, N=22-25, all p<0.0001): 50-62%
- progerin at 150 mg/m^2 lonafarnib versus the 115 mg/m^2 dose (plasma progerin; ProLon1, each of the 4 trial visits after the 8-month visit, N=22-25, all p<0.05): significantly decreased
- average progerin decrease from baseline (plasma progerin; ProLon1, month 4, lonafarnib 115 mg/m^2, N=25, p<0.0001): 48%
- average difference of progerin trough (lower) from 2-, 4- and 8-hours post-dose (plasma progerin; ProLon1 pK samples, lonafarnib 115 mg/m^2, all p<0.05): about 3,000 pg/mL
- progerin post-dose (hours 1,2,4,6,8) vs. trough levels (plasma progerin; ProLon1 pK samples, lonafarnib 150 mg/m^2, all p≥0.05): did not demonstrate significant changes
- average progerin decrease from baseline (plasma progerin; ProLon2, lonafarnib monotherapy 150 mg/m^2, dosing period, N=26, p<0.0001): 36.7%
- time to significant decrease of plasma progerin levels (plasma progerin; lonafarnib therapy, HGPS patients): ≤ 4 months
- average decreases in progerin from baseline (plasma progerin; long-term continuous therapy subgroup N=13, all subsequent time points, 150 mg/m^2, up to 9.8±0.5 years, p<0.0001): 56-74%
- average progerin decrease from baseline (plasma progerin; long-term continuous therapy subgroup N=13, month 4, 115 mg/m^2, p<0.0001): 48%
- average decrease of trial patients' plasma progerin (plasma progerin; on therapy, HGPS trial patients): more than 14,000 pg/mL
- average on-therapy plasma progerin decrease from baseline untreated (plasma progerin; overall, all trials, HGPS patients, p<0.0001): 38%
- average on-therapy plasma progerin (plasma progerin; overall, all trials, baseline untreated 32,726±12,659 pg/mL): 20,211±10,190 pg/mL
- estimated increase in life expectancy (patients with HGPS; 13 patients on therapy for over 10 years): ~6 years
- increase in average lifespan (patients with HGPS; from 14.5 to over 20 years of age, 13 patients on therapy over 10 years): greater than 40%
- Cmax [1]: 2.64 µg/mL
- increased survival, estimated, on average (children with HGPS): 2.5 years
